# Assay results reported in article PMC11141316, “Anilino-1,4-naphthoquinones as potent mushroom tyrosinase inhibitors: in vitro and in silico studies” (Journal of Enzyme Inhibition and Medicinal Chemistry, 2024).
# Like-named read-outs stand apart in the source and are kept apart here.
# How the values were obtained:
# mushroom tyrosinase [1] = settings: read-out: IC50 (previously reported tyrosinase inhibitor); cited from earlier work
# EGFR = system: EGFR; design: method as in PMID 35664590, PMID 25019480; settings: cited from earlier work
# mushroom tyrosinase [2] = assay: Mushroom tyrosinase activity assay (L-DOPA to dopachrome); type: biochemical; settings: L-DOPA substrate, 37 °C, pH 6.8, mean ± SEM, n = 3
# Method: Enzymatic conversion of L-DOPA into dopachrome by mushroom tyrosinase (Sigma Aldrich, St. Louis, MO) was detected using spectrophotometric evaluation. The mushroom tyrosinase activity assay was performed according to a previous report. In this study, the enzyme assay was conducted at 37 °C, which is in the optimal temperature range of tyrosinase, as per previous studies[20]^,[21]. The enzyme, substrate, and inhibitor(s) were dissolved in potassium phosphate buffer at a pH of 6.8, which is in the optimal pH range of tyrosinase. Note that, the solvent for preparing the stock solution of inhibitors was dimethyl sulphoxide. […] Then, the substrate (10 μL of 50 mM of L-DOPA) was introduced to the samples, followed by incubation at 37 °C for 15 min in darkness. The absorbance was later measured at 450 nm. The experiment was conducted in triplicate. IC50 values were determined through dose–response curve analysis using GraphPad Prism 10.2.2 software (La Jolla, CA).
# Data are presented as the mean ± standard error of the mean (SEM) from three independent experiments (n = 3). Statistical comparisons between two groups were conducted using the t-test, with a p value of <0.05 considered to be statistically significant.
IC50 (mushroom tyrosinase [2]) [µM],SMILES,IC50 (mushroom tyrosinase [1]) [mM],further results
,CC1(C)C=Cc2c(O)ccc(C3=Cc4ccc(O)cc4OC3)c2O1 [glabrene],7.6,
,C[C@@H]1[C@H](O)[C@@H](C)/C=C/C=C/C=C/C=C/C=C/C=C/C=C/[C@H](O[C@@H]2O[C@H](C)[C@@H](O)[C@H](N)[C@@H]2O)C[C@@H]2O[C@](O)(C[C@@H](O)C[C@@H](O)[C@H](O)CC[C@@H](O)C[C@@H](O)CC(=O)O[C@H]1C)C[C@H](O)[C@H]2C(=O)O [amphotericin B],0.263 ± 0.0118,
,Cc1ccc(NC2=C(Cl)C(=O)c3ccccc3C2=O)cc1 [compound 3],,EGFR inhibitory potency relative to erlotinib (EGFR): fourfold higher potency than erlotinib
151 ± 4.39,O=C1C=C(Nc2ccccc2)C(=O)c2ccccc21 [compound 1],,
112 ± 9.18,CC(=O)c1cccc(NC2=C(Cl)C(=O)c3ccccc3C2=O)c1 [compound 10],,
,O=c1c(O)c(-c2ccc(O)cc2O)oc2cc(O)cc(O)c12 [morin],2.32,
138 ± 6.07,O=C1C(Cl)=C(Nc2ccc(Br)cc2)C(=O)c2ccccc21 [compound 5],,
